From patent US20220226268A1, “COMPOSITIONS AND METHODS FOR TREATING CENTRAL NERVOUS SYSTEM DISORDERS” (PaxMedica, Inc., priority 2019, published 2022)

Experiments:
[1] = Determination of suramin in plasma and brain tissue of mice after IP or IN administration; assay type: in vivo, male Fmr1-knockout B6.129P2-Fmr1tm1Cgr/J TG mice; details: male, Fmr1-knockout B6.129P2-Fmr1tm1Cgr/J, mouse, Group 1: IP injection 20 mg/kg weekly for four weeks, read-out: Average Brain Tissue to Plasma Partitioning Ratio
Description: For the study, male Fmr1-knockout B6.129P2-Fmr1tm1Cgr/J TG mice were purchased from Jackson Laboratories, Bar Harbor, Me. These mice were of approximately 8 weeks of age.
Mice were accommodated to the research facility for approximately a week. Body weights of all mice were recorded for health monitoring purposes.
Blood samples were collected from all mice at the end of 12 weeks of age. Brain tissue was harvested from all mice upon sacrifice 13-14 weeks of age. Standard sample preparation and analytical techniques were used to obtain the data.
The data is presented as the average plasma concentration (in both ng/ml and μM) for each animal group the and average brain tissue concentration (in both ng/g and mmol/g). Also presented is the average brain tissue to plasma partition ratio for each group.

[2] = in vivo, cited from earlier work

Question: With Cc1ccc(C(=O)Nc2ccc(S(=O)(=O)O)c3cc(S(=O)(=O)O)cc(S(=O)(=O)O)c23)cc1NC(=O)c1cccc(NC(=O)Nc2cccc(C(=O)Nc3cc(C(=O)Nc4ccc(S(=O)(=O)O)c5cc(S(=O)(=O)O)cc(S(=O)(=O)O)c45)ccc3C)c2)c1 [suramin] as the compound, how does the Kp [1] read?
Answer: 0.03

Question: What about the oral bioavailability ([2]; po) of the same compound?
Answer: not orally bioavailable

Question: What about the half-life [2] of the same compound?
Answer: 41 to 78 days
